Reference: ChEMBL document CHEMBL5137107, “Optimization of hERG and Pharmacokinetic Properties for Basic Dihydro-8H-purin-8-one Inhibitors of DNA-PK” (ACS Med Chem Lett, 2022)
Converted amounts (≈) assume the structure as drawn.

Columns and labels:
[1] = 1-Octanol/aqueous buffer partition coefficient, logD of the compound at pH 7.4 by shake flask technique based UPLC analysis; assay type: physicochemical
[2] = Apparent permeability of compound across apical to basal membrane in human Caco-2 by ABBA assay; assay type: ADME, cell-based
[3] = Solubility of the compound in FaSSIF at pH 6.5; assay type: physicochemical
[4] = Oral bioavailability in Han Wistar rat at 5 mg/kg; assay type: ADME, organism-based; conditions: in vivo
[5] = Volume of distribution at steady state in Han Wistar rat at 5 mg/kg, po or 2 mg/kg, iv; assay type: ADME, organism-based; conditions: in vivo
[6] = Oral bioavailability in Beagle dog at 2 mg/kg; assay type: ADME, organism-based, Canis lupus familiaris; conditions: in vivo
[7] = Volume of distribution at steady state in Beagle dog at 2 mg/kg, po or 1 mg/kg, iv; assay type: ADME, organism-based, Canis lupus familiaris; conditions: in vivo
[8] = Acid dissociation constant, pKa of the compound; assay type: physicochemical
[9] = Cardiotoxicity in guinea pig assessed as unbound concentration required to increase in QTc level by 10% administered as iv infusion consecutively for 15 mins; assay type: toxicity, organism-based, Cavia porcellus; conditions: in vivo
[10] = Solubility of the compound; assay type: physicochemical
[11] = Cardiotoxicity in guinea pig assessed as increase in QTc level by measuring unbound Cmax at 3 to 30 mg/kg administered as iv infusion consecutively for 15 mins; assay type: toxicity, organism-based, Cavia porcellus; conditions: in vivo, dose 3-30 mg/kg

| logD [1] | pKa [8] | SMILES | also measured |
| --- | --- | --- | --- |
| 0.3 |  | Cc1cc2ncnn2cc1Nc1ncc2c(n1)n(C1CCN(C)CC1)c(=O)n2C |  |
| 1.2 | 8.7 | Cc1cc2ncccc2cc1Nc1ncc2c(n1)n([C@@H]1CCN(C)C1)c(=O)n2C |  |
| 2.2 |  | Cc1cc2ncncc2cc1Nc1ncc2c(n1)n(C1CCOCC1)c(=O)n2C |  |
| 1.1 | 8.9 | Cc1cc2ncccc2cc1Nc1ncc2c(n1)n([C@H]1CCN(C)C1)c(=O)n2C | EC10 [11]: 3.9 µM; Papp A→B [2]: 19 ×10⁻⁶ cm/s |
| 0.9 | 8.2 | Cc1cc2ncccc2cc1Nc1ncc2c(n1)n([C@H]1CCN(CCO)C1)c(=O)n2C | Papp A→B [2]: 2.6 ×10⁻⁶ cm/s |
| 1.5 |  | Cc1cc2ncccc2cc1Nc1ncc2c(n1)n([C@H]1CCN(C3COC3)C1)c(=O)n2C |  |
| 2.1 | 6.5 | Cc1cc2ncccc2cc1Nc1ncc2c(n1)n([C@@H]1CN(C)C[C@H]1F)c(=O)n2C |  |
| 0.5 |  | Cc1cc2ncccc2cc1Nc1ncc2c(n1)n(C1CCNCC1)c(=O)n2C | Papp A→B [2]: 0.7 ×10⁻⁶ cm/s |
| 2.2 |  | Cc1cc2nnccc2cc1Nc1ncc2c(n1)n(C1CCOCC1)c(=O)n2C |  |

More lines, now with the values behind:

| SMILES | logD [1] | pKa [8] | also measured |
| --- | --- | --- | --- |
| Cc1cc2nnccc2cc1Nc1ncc2c(n1)n(C1CCN(C)CC1)c(=O)n2C | 1.2 |  |  |
| Cc1cc2ncccc2cc1Nc1ncc2c(n1)n([C@@H]1CNC[C@H]1F)c(=O)n2C | 1.6 | 7.3 | Papp A→B [2]: 9.4 ×10⁻⁶ cm/s; solubility [3]: 872 µM (≈ 343 µg/mL); bioavailability [4]: 58%; Vdss [5]: 2.1 L/kg; bioavailability [6]: 52%; Vdss [7]: 5.4 L/kg |
| COCCN1CC[C@H](n2c(=O)n(C)c3cnc(Nc4cc5cccnc5cc4C)nc32)C1 | 1.7 |  |  |
| Cc1cc2ncnn2cc1Nc1ncc2c(n1)n(C1CCOCC1)c(=O)n2C [AZD-7648] | 1.3 |  |  |
| Cc1cc2nccnc2cc1Nc1ncc2c(n1)n(C1CCN(C)CC1)c(=O)n2C | 1.2 |  |  |
| Cc1cc2nccnc2cc1Nc1ncc2c(n1)n(C1CCOCC1)c(=O)n2C | 2.2 |  |  |
| Cc1cc2ncccc2cc1Nc1ncc2c(n1)n(C1CCN(C)CC1)c(=O)n2C | 1.8 | 8.2 | EC10 [9]: 2.3 µM; Papp A→B [2]: 14 ×10⁻⁶ cm/s; solubility [10]: 178 µM (≈ 71.8 µg/mL) |
| Cc1cc2ncccc2cc1Nc1ncc2c(n1)n([C@@H]1CN(C)C[C@@H]1F)c(=O)n2C | 2.2 |  |  |
| Cc1cc2ncccc2cc1Nc1ncc2c(n1)n([C@@H]1CNC[C@@H]1F)c(=O)n2C | 1.7 | 7.2 |  |
| Cc1cc2ncccc2cc1Nc1ncc2c(n1)n(C1CCOCC1)c(=O)n2C | 2.5 |  |  |
